Data: US20260035367A1 (Celgene Corporation, priority 2021, published 2026)
Counter-ions that a name gives are not always drawn. Like-named read-outs stand apart in the source and are kept apart here.

Assays:
[1] = molecular target: T1, Recombinant human PKC-theta (His-tagged 362-706) (Homo sapiens, UniProt Q04759); assay: PKC-theta inhibition assay (HTRF KinEASE kit); type: biochemical; settings: STK substrate 525 nM
T1 construct: Recombinant human PKC-theta (His-tagged 362-706); His
Summary of the method: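 IC50 values were from 4-parameter logistic fits of percent inhibition, based on acceptor/donor HTRF ratios over 10 semi-log compound doses. Kinase reactions, started with substrate plus ATP, ran 30 min at 25 °C in buffer supplemented with 10 mM MgCl2, 1 mM DTT and 0.1% Tween 20; detection lasted 2 h.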

[2] = tested on: IL-2 secretion by human effector memory T cells (TEM); assay: Effector memory T cells IL-2 release assay (CD3/CD28 stimulation, HTRF IL-2 detection); type: cell-based; settings: Homo sapiens, T-cell, 24 h
Summary of the method: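 Human effector memory T cells from healthy-donor buffy coats were exposed in triplicate to ten semi-log doses of compound in 0.1% DMSO. The cells were stimulated and incubated 24 h at 37 °C. Secreted IL-2 in the supernatant was measured by HTRF.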

[3] = molecular target: T2, Recombinant human PKC-delta (His-tagged 345-676) (Homo sapiens, UniProt Q05655); assay: PKC-delta inhibition assay (HTRF KinEASE kit); type: biochemical; settings: ratio, PKC-theta vs PKC-delta HTRF; for PKC-theta/PKC-delta selectivity (binned): binned A to G
T2 construct: PKC-delta (His-tagged 345-676); His
Method: PKC-theta and PKC-delta biochemical activities were measured using the PKC-theta HTRF KinEASEkit kit, according to manufacturer's instructions (Cisbio, catalogue number 61ST1PEJ). Briefly, the kinase buffer component of the kit was supplemented with 10 mM MgCl2, 1 mM DTT and 0.1% Tween 20. […] The streptavidin_XL665 and STK antibody-cryptate detection reagents were mixed according to the manufacturer's instructions. Test compounds were diluted in DMSO in a series of 10 semi-log step doses; 10 nL of each compound dose were dispensed in 384 well plates. […] The reaction was started by addition of the substrate and ATP and incubated at 25° C. for 30 minutes or 20 minutes for the PKC-theta and PKC-delta assays, respectively. The detection reagents were added, and the plate was incubated in the dark for 2 hours. […] The ratio of acceptor and donor emission signals was calculated for each well.

[4] = ATP 6.5 μM, binned A to H, read-out: PKC-theta HTRF pIC50 (binned) (converted)
[5] = ATP 6.5 μM, read-out: PKC-theta HTRF pIC50 (converted)
[6] = binned A to G, read-out: PKC-theta IL2 pIC50 (binned) (converted)
[7] = read-out: PKC-theta IL2 pIC50 (converted)

T2 sequence (Q05655 345-676): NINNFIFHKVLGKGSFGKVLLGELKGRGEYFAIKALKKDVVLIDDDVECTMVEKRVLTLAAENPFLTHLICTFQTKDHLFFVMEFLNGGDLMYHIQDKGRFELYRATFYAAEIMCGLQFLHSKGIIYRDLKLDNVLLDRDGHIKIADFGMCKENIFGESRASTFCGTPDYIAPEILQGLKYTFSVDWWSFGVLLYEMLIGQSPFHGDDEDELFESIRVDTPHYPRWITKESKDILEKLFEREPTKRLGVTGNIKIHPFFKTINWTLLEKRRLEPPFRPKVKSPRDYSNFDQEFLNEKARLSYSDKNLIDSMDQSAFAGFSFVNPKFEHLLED
T1 sequence (Q04759 362-706): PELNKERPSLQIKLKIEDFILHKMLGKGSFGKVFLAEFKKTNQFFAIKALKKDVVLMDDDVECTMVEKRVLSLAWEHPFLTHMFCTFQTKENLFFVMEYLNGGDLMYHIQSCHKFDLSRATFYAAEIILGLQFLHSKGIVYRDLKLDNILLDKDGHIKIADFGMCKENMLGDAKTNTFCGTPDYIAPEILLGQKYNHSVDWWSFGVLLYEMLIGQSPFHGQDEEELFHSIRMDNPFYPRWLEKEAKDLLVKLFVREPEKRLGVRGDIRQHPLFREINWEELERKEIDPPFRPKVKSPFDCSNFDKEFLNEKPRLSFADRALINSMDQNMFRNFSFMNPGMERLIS

Compound	IC50 [1, 4]	IC50 [1, 5]	IC50 [2, 6]	IC50 [2, 7]	PKC-theta/PKC-delta selectivity [3]	PKC-theta/PKC-delta selectivity (binned) [3]	IC50 ([1]; PKC-theta HTRF pIC50 (binned), ATP 6.5 μM, binned A to H)	IC50 ([1]; PKC-theta HTRF pIC50, ATP 6.5 μM)
O=c1[nH]c2nccc(-c3cc(Cl)cc(N4CCNCC4)c3)c2[nH]1 [Example 10]	0.316 to 1 µM	0.316 µM	> 1 µM	2 µM	1	F (a ratio of between 1 and 5)		
C[C@@H]1CN(c2cccc(-c3ccnc4[nH]c(=O)[nH]c34)c2)C[C@H](C)N1 [Example 11]	> 1 µM	2.51 µM	> 1 µM	6.31 µM	4	F (a ratio of between 1 and 5)		
O=c1[nH]c2nccc(-c3cccc(N4CCNCC4c4cccnc4)c3)c2[nH]1 (centres unmarked) [Example 12]	> 1 µM	5.01 µM	> 1 µM	10 µM	1	G (a ratio of 0 to 1)		
O=c1[nH]c2nccc(-c3cccc(N4CCNCC4)n3)c2[nH]1 [Example 14]	0.1 to 0.316 µM	0.1 µM	0.316 to 1 µM	0.631 µM	2	F (a ratio of between 1 and 5)		
O=c1[nH]c2nccc(-c3cc(N4CCNCC4)ccc3F)c2[nH]1 [Example 15]	0.316 to 1 µM	0.501 µM	> 1 µM	10 µM	3	F (a ratio of between 1 and 5)		
O=c1[nH]c2nccc(-c3cc(N4CCNCC4)ccn3)c2[nH]1 [Example 16]	> 1 µM	6.31 µM	> 1 µM	10 µM	1	G (a ratio of 0 to 1)		
CN1CCN(c2cccc(-c3ccnc4[nH]c(=O)[nH]c34)c2)CC1 [Example 17]	> 1 µM	5.01 µM	> 1 µM	10 µM	2	F (a ratio of between 1 and 5)		
CC1C(=O)Nc2nccc(-c3cc(F)cc(N4CCNCC4)c3)c21 (centres unmarked) [Example 18]	0.01 to 0.0316 µM	0.0251 µM	0.1 to 0.316 µM	0.2 µM	3	F (a ratio of between 1 and 5)		
CC1C(=O)Nc2nccc(-c3cccc(CN4CCNCC4)c3)c21 (centres unmarked) [Example 19]	0.1 to 0.316 µM	0.2 µM	> 1 µM	2 µM	2	F (a ratio of between 1 and 5)		
O=c1[nH]c2nccc(-c3cccc(CN4CCNCC4)c3)c2[nH]1 [Example 20]	> 1 µM	3.98 µM	> 1 µM	10 µM		G (a ratio of 0 to 1)		
CCC1C(=O)Nc2nccc(-c3cccc(N4CCNCC4)c3)c21 (centres unmarked) [Example 21]	0.316 to 1 µM	0.316 µM	0.316 to 1 µM	1 µM	1	F (a ratio of between 1 and 5)		
CC1C(=O)Nc2nccc(-c3cccc(CN(C)C)c3)c21 (centres unmarked) [Example 22]	0.316 to 1 µM	0.501 µM	> 1 µM	1.58 µM	1	F (a ratio of between 1 and 5)		
CC1(C)C(=O)Nc2nccc(-c3cccc(N4CCNCC4)c3)c21 [Example 23]	0.1 to 0.316 µM	0.1 µM	> 1 µM	1.58 µM	2	F (a ratio of between 1 and 5)		
CC1C(=O)Nc2ncnc(-c3cccc(N4CCNCC4)c3)c21 (centres unmarked) [Example 24]	0.316 to 1 µM	1 µM	> 1 µM	2 µM	1	F (a ratio of between 1 and 5)		
CC1C(=O)Nc2nccc(-c3cc(N4CCNCC4)cc(C(F)(F)F)c3)c21 (centres unmarked) [Example 25]	0.0316 to 0.1 µM	0.0501 µM	0.316 to 1 µM	0.501 µM	7	E (a ratio of between 5 and 10)		
CC1(C)C(=O)Nc2nccc(-c3cccc(N(CC4COC4)C4CCCNC4)c3)c21 (centres unmarked) [Example 26]	0.1 to 0.316 µM	0.158 µM	> 1 µM	2.51 µM	2	F (a ratio of between 1 and 5)		

Compound	IC50 [1, 4]	IC50 [1, 5]	IC50 [2, 6]	IC50 [2, 7]	PKC-theta/PKC-delta selectivity [3]	PKC-theta/PKC-delta selectivity (binned) [3]	IC50 ([1]; PKC-theta HTRF pIC50 (binned), ATP 6.5 μM, binned A to H)	IC50 ([1]; PKC-theta HTRF pIC50, ATP 6.5 μM)
CC1C(=O)Nc2nccc(-c3cccc(C(=O)N4CCNCC4)c3)c21 (centres unmarked) [Example 27]	0.316 to 1 µM	1 µM	> 1 µM	10 µM	1	F (a ratio of between 1 and 5)		
CC1(C)C(=O)Nc2nccc(-c3ccnc(N4CCNCC4)c3)c21 [Example 28]	> 1 µM	1.26 µM	> 1 µM	10 µM	1	G (a ratio of 0 to 1)		
CC1(C)C(=O)Nc2nccc(-c3cc(F)cc(N4CCNCC4)c3)c21 [Example 29]	0.0316 to 0.1 µM	0.0316 µM	0.316 to 1 µM	0.501 µM	1	F (a ratio of between 1 and 5)		
C[C@H]1CNCCN1c1cc(F)cc(-c2ccnc3c2C(C)(C)C(=O)N3)c1 [Example 30]	0.0316 to 0.1 µM	0.0316 µM	0.316 to 1 µM	0.794 µM	2	F (a ratio of between 1 and 5)		
C[C@H]1CNCCN1c1cc(-c2ccnc3c2C(C)(C)C(=O)N3)ccn1 [Example 31]	0.316 to 1 µM	0.501 µM	> 1 µM	6.31 µM	1	F (a ratio of between 1 and 5)		
CC1(C)C(=O)Nc2nccc(-c3cc(F)cc(CN4CCNCC4)c3)c21 [Example 32, 4-[3-fluoro-5-(piperazin-1-ylmethyl)phenyl]-3,3-dimethyl-1H-pyrrolo[2,3-b]pyridin-2-one; dihydrochloride]			> 1 µM	3.98 µM	3	F (a ratio of between 1 and 5)	0.1 to 0.316 µM	0.2 µM
CCC1(C)C(=O)Nc2nccc(-c3cc(F)cc(N4CCNCC4)c3)c21 (centres unmarked) [Example 33]	0.0316 to 0.1 µM	0.0501 µM	0.316 to 1 µM	0.794 µM	2	F (a ratio of between 1 and 5)		
O=C1Nc2nccc(-c3cc(F)cc(N4CCNCC4)c3)c2C12CC2 [Example 34]	> 1 µM	1 µM	> 1 µM	3.98 µM	2	F (a ratio of between 1 and 5)		
O=C1Nc2nccc(-c3cc(F)cc(N4CCNCC4)c3)c2C12CCC2 [Example 35]	0.0316 to 0.1 µM	0.0398 µM	0.316 to 1 µM	0.398 µM	3	F (a ratio of between 1 and 5)		
O=C1Nc2nccc(-c3cc(F)cc(N4CCNCC4)c3)c2C12CCCC2 [Example 36]	0.01 to 0.0316 µM	0.02 µM	0.1 to 0.316 µM	0.251 µM	1	F (a ratio of between 1 and 5)		
CC1(C)C(=O)Nc2nccc(-c3cc(N4CCNCC4)cc(C(F)(F)F)c3)c21 [Example 37]	0.0316 to 0.1 µM	0.1 µM	> 1 µM	1.26 µM	5	F (a ratio of between 1 and 5)		
CC1(C)C(=O)Nc2nccc(-c3cccc(N4CCNCC4)n3)c21 [Example 38]	0.00316 to 0.01 µM	0.01 µM	0.1 to 0.316 µM	0.158 µM	4	F (a ratio of between 1 and 5)		
C[C@H]1CNCCN1c1cccc(-c2ccnc3c2C(C)(C)C(=O)N3)c1 [Example 39]	0.1 to 0.316 µM	0.2 µM	> 1 µM	2.51 µM	1	F (a ratio of between 1 and 5)		
CC1(C)C(=O)Nc2nccc(-c3cc(Cl)cc(N4CCNCC4)c3)c21 [Example 40]	0.0316 to 0.1 µM	0.0316 µM	0.316 to 1 µM	0.398 µM	4	F (a ratio of between 1 and 5)		
CC1(C)C(=O)Nc2nccc(-c3cccc(N(CC4COC4)C4CCNCC4)c3)c21 [Example 41]	0.0316 to 0.1 µM	0.0794 µM	> 1 µM	2 µM	3	F (a ratio of between 1 and 5)		
